According to patent US12268757B2, “Cyclen based compounds, coordination compounds, peptides, pharmaceutical preparation, and use thereof” (USTAV ORGANICKE CHEMIE A BIOCHEMIE AV CR V.V.I., priority 2019, dated 2025):

Assays:
[1] = Kinetic inertness: acid-assisted decomplexation followed by HPLC; assay type: physicochemical; settings: pH ~2.0, 40° C.; for Peak area of intact chelate: TFA 0.08%, UV 280 nm
Protocol: Stability (kinetic inertness) of the Gd(III) building block Gd-3 prepared in Example 4 was tested by following acid-assisted decomplexation by HPLC. Isocratic elution method was used for analysis. Constant concentration of TFA (0.08%) was maintained in the mobile phase (pH ˜2.0), while methanol content was varied to tune the retention time of the analyte. With increasing retention time (i.e. time spent in the acidic medium), more decomplexation should occur and the amount of intact chelate should decrease mono-exponentially (pseudo first-order reaction conditions), while a peak of free chelator should appear in the chromatogram. The HPLC conditions were as follows: column Kinetex C18, 100×3 mm, 2.6 um; column temperature maintained at 40° C.; mobile phase: TFA (constant 0.08% vol.), MeOH (variable), water; flow-rate 0.6 mL/min; UV detection at 280 nm; injection of 2 uL of 0.5 mM sample.

[2] = Relaxivity of Gd(III) chelates; assay type: physicochemical
Protocol: Relaxivity of Gd(III) chelate Gd-6 and of a peptide Gly-Phe-(Gd-6)-Gly-NH2 have been measured at 40° C. and 0.5 T in 10 mM MOPS buffer pH=7.0. It is apparent from the data that the relaxivity of the peptide, where the Gd-6 is incorporated within the peptide chain, is higher than the relaxivity of a standalone Gd-6.

| Substance | Peak area of intact chelate ([1]; 36% methanol in mobile phase, retention time 6.894 min) | Peak area of intact chelate ([1]; 37% methanol in mobile phase, retention time 6.072 min) | Peak area of intact chelate ([1]; 38% methanol in mobile phase, retention time 5.570 min) | Peak area of intact chelate ([1]; 39% methanol in mobile phase, retention time 5.044 min) | Peak area of intact chelate ([1]; 40% methanol in mobile phase, retention time 4.632 min) | Stability (kinetic inertness) under acidic conditions ([1]; with increasing retention time in TFA 0.08% mobile phase) | Relaxivity r1 at 40° C., and 0.5 T ([2]; 10 mM MOPS buffer pH=7.0, calculated r1 = R1/c) | Relaxation time T1 ([2]; 40° C., 0.5 T, 10 mM MOPS buffer pH=7.0) |
| --- | --- | --- | --- | --- | --- | --- | --- | --- |
| Gd(III) Complex of 2,2′,2″-(10-((2S,3S,4S)-1-(2-(9H-fluoren-9-yl)acetoxy)-2-carboxy-4-hydroxypyrrolidin-3-yl)-1,4,7,10-tetraazacyclododecane-1,4,7-triyl)triacetic acid [Gd-3] | 690.9 mAU · s | 686.6 mAU · s | 688.4 mAU · s | 685.5 mAU · s | 681.6 mAU · s | no decrease in the peak area | – | – |
| Gd(III) Complex of 2,2′,2″-(10-((2S,3S,4S)-2-carboxy-4-hydroxypyrrolidin-3-yl)-1,4,7,10-tetraazacyclododecane-1,4,7-triyl)triacetic acid [Gd-6] | – | – | – | – | – | – | 3.5 mM⁻¹ s⁻¹ | 1562 ms |
